#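 Cultured in 96-well plates, cells were exposed to test compound for 48 hours across five concentrations. TGI is the concentration that stops growth completely.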
# Assays:
# Assay in all cases: NCI tumour cell line growth inhibition, 48 h
# 786-0 renal = system: 786-0 renal
# A498 renal = system: A498 renal
# A549 NSCLC = system: A549 NSCLC
# ACHN renal = system: ACHN renal
# BT-549 breast = system: BT-549 breast
# CAKI-1 renal = system: CAKI-1 renal
# CCRF-CEM leukemia = system: CCRF-CEM leukemia
# COLO 205 colon = system: COLO 205 colon
# DU-145 prostate = system: DU-145 prostate
# EKVX NSCLC = system: EKVX NSCLC
# HCC-2998 colon = system: HCC-2998 colon
# HCT-116 colon = system: HCT-116 colon
# HCT-15 colon = system: HCT-15 colon
# HL-60(TB) leukemia = system: HL-60(TB) leukemia
# HOP-62 NSCLC = system: HOP-62 NSCLC
# HOP-92 NSCLC = system: HOP-92 NSCLC
# HS 578T breast = system: HS 578T breast
# HT29 colon = system: HT29 colon
# IGROV1 ovarian = system: IGROV1 ovarian
# K-562 leukemia = system: K-562 leukemia
# KM12 colon = system: KM12 colon
# LOX IMVI melanoma = system: LOX IMVI melanoma
# M14 melanoma = system: M14 melanoma
# MALME-3M melanoma = system: MALME-3M melanoma
# MCF7 breast = system: MCF7 breast
# MDA-MB-231 breast = system: MDA-MB-231 breast
# MDA-MB-435 = system: MDA-MB-435
# MDA-N = system: MDA-N
# MOLT-4 leukemia = system: MOLT-4 leukemia
# NCI-H23 lung = system: NCI-H23 lung
# NCI-H460 lung = system: NCI-H460 lung
# NCI-H522 lung = system: NCI-H522 lung
# NCI/ADR-RES ovarian = system: NCI/ADR-RES ovarian
# OVCAR-3 ovarian = system: OVCAR-3 ovarian
# OVCAR-4 ovarian = system: OVCAR-4 ovarian
# OVCAR-5 ovarian = system: OVCAR-5 ovarian
# OVCAR-8 ovarian = system: OVCAR-8 ovarian
# PC-3 prostate = system: PC-3 prostate
# RPMI-8226 leukemia = system: RPMI-8226 leukemia
# RXF 393 renal = system: RXF 393 renal
# SF-268 CNS = system: SF-268 CNS
# SF-295 CNS = system: SF-295 CNS
# SF-539 CNS = system: SF-539 CNS
# SK-MEL-2 melanoma = system: SK-MEL-2 melanoma
# SK-MEL-28 melanoma = system: SK-MEL-28 melanoma
# SK-MEL-5 melanoma = system: SK-MEL-5 melanoma
# SK-OV-3 ovarian = system: SK-OV-3 ovarian
# SN12C renal = system: SN12C renal
# SNB-19 CNS = system: SNB-19 CNS
# SNB-75 CNS = system: SNB-75 CNS
# SR leukemia = system: SR leukemia
# SW-620 colon = system: SW-620 colon
# T-47D breast = system: T-47D breast
# TK-10 renal = system: TK-10 renal
# U251 CNS = system: U251 CNS
# UACC-257 melanoma = system: UACC-257 melanoma
# UACC-62 melanoma = system: UACC-62 melanoma
# UO-31 renal = system: UO-31 renal
# NCI-H226 lung = system: NCI-H226 lung
compound,measurement,setting,value
CC[C@@H]1/C=C/C=C/C[C@H](C)[C@@H](O)[C@](C)(O)C(=O)[C@H](C)[C@@H](O)[C@H](C)C(=O)[C@H](C)[C@@H](O)[C@H](C)/C=C/C(=O)O[C@H]2[C@@H](C)[C@@H](CC1)O[C@]1(O[C@H](CC(C)O)[C@H](C)CC1=O)[C@@H]2C (stereo not given in full),TGI,786-0 renal,12.1 µM
same,TGI,A498 renal,7.93 µM
same,TGI,A549 NSCLC,> 16.2 µM
same,TGI,ACHN renal,9.19 µM
same,TGI,BT-549 breast,10.9 µM
same,TGI,CAKI-1 renal,18 µM
same,TGI,CCRF-CEM leukemia,> 16 µM
same,TGI,COLO 205 colon,5.07 µM
same,TGI,DU-145 prostate,8.78 µM
same,TGI,EKVX NSCLC,5.9 µM
same,TGI,HCC-2998 colon,8 µM
same,TGI,HCT-116 colon,6.26 µM
same,TGI,HCT-15 colon,> 21.2 µM
same,TGI,HL-60(TB) leukemia,11.4 µM
same,TGI,HOP-62 NSCLC,8.41 µM
same,TGI,HOP-92 NSCLC,9.98 µM
same,TGI,HS 578T breast,> 18.5 µM
same,TGI,HT29 colon,8.78 µM
same,TGI,IGROV1 ovarian,16.4 µM
same,TGI,K-562 leukemia,14.5 µM
same,TGI,KM12 colon,13 µM
same,TGI,LOX IMVI melanoma,9.2 µM
same,TGI,M14 melanoma,9.41 µM
same,TGI,MALME-3M melanoma,14.2 µM
same,TGI,MCF7 breast,4.7 µM
same,TGI,MDA-MB-231 breast,8.47 µM
same,TGI,MDA-MB-435,10.6 µM
same,TGI,MDA-N,10.7 µM
same,TGI,MOLT-4 leukemia,11.3 µM
same,TGI,NCI-H23 lung,12.4 µM
same,TGI,NCI-H460 lung,6.85 µM
same,TGI,NCI-H522 lung,6.59 µM
same,TGI,NCI/ADR-RES ovarian,14.8 µM
same,TGI,OVCAR-3 ovarian,13.1 µM
same,TGI,OVCAR-4 ovarian,> 19.7 µM
same,TGI,OVCAR-5 ovarian,8.25 µM
same,TGI,OVCAR-8 ovarian,> 25 µM
same,TGI,PC-3 prostate,6.41 µM
same,TGI,RPMI-8226 leukemia,> 13.9 µM
same,TGI,RXF 393 renal,7.37 µM
same,TGI,SF-268 CNS,7.93 µM
same,TGI,SF-295 CNS,0.114 µM
same,TGI,SF-539 CNS,8.75 µM
same,TGI,SK-MEL-2 melanoma,9.61 µM
same,TGI,SK-MEL-28 melanoma,> 19.6 µM
same,TGI,SK-MEL-5 melanoma,3.53 µM
same,TGI,SK-OV-3 ovarian,> 19.2 µM
same,TGI,SN12C renal,8.72 µM
same,TGI,SNB-19 CNS,> 25 µM
same,TGI,SNB-75 CNS,> 25 µM
same,TGI,SR leukemia,12.8 µM
same,TGI,SW-620 colon,> 25 µM
same,TGI,T-47D breast,> 25 µM
same,TGI,TK-10 renal,17.9 µM
same,TGI,U251 CNS,11.9 µM
same,TGI,UACC-257 melanoma,3.54 µM
same,TGI,UACC-62 melanoma,6.68 µM
same,TGI,UO-31 renal,> 20.4 µM
CNC1C(=O)C(C)C(O)(C(CC(C)C(O)/C=C/C=C/CNC(=O)C(C)(C)C(O)\C(C)=C/C=C\C=C\Cc2cnc(C)o2)OC)C12C(=O)OC2COC (stereo not given) (tested in a mixture with another compound),TGI,786-0 renal,73.7 µM
same,TGI,A498 renal,> 79.3 µM
same,TGI,A549 NSCLC,> 100 µM
same,TGI,ACHN renal,> 43.2 µM
same,TGI,BT-549 breast,> 100 µM
same,TGI,CAKI-1 renal,> 100 µM
same,TGI,CCRF-CEM leukemia,38.5 µM
same,TGI,COLO 205 colon,20.2 µM
same,TGI,DU-145 prostate,> 100 µM
same,TGI,EKVX NSCLC,> 64.4 µM
same,TGI,HCC-2998 colon,41.7 µM
same,TGI,HCT-116 colon,> 49.9 µM
same,TGI,HCT-15 colon,> 63.1 µM
same,TGI,HL-60(TB) leukemia,3.48 µM
same,TGI,HOP-62 NSCLC,24.1 µM
same,TGI,HOP-92 NSCLC,> 51.3 µM
same,TGI,HS 578T breast,> 100 µM
same,TGI,HT29 colon,20.7 µM
same,TGI,IGROV1 ovarian,> 26.2 µM
same,TGI,K-562 leukemia,5.42 µM
same,TGI,KM12 colon,26.1 µM
same,TGI,LOX IMVI melanoma,31.5 µM
same,TGI,M14 melanoma,27 µM
same,TGI,MALME-3M melanoma,> 87.9 µM
same,TGI,MCF7 breast,> 84.9 µM
same,TGI,MDA-MB-231 breast,> 63.3 µM
same,TGI,MDA-MB-435,> 100 µM
same,TGI,MDA-N,71.4 µM
same,TGI,MOLT-4 leukemia,35.8 µM
same,TGI,NCI-H226 lung,4.92 µM
same,TGI,NCI-H23 lung,> 60.7 µM
same,TGI,NCI-H460 lung,> 100 µM
same,TGI,NCI-H522 lung,21.2 µM
same,TGI,NCI/ADR-RES ovarian,> 100 µM
same,TGI,OVCAR-3 ovarian,34.6 µM
same,TGI,OVCAR-4 ovarian,> 100 µM
same,TGI,OVCAR-5 ovarian,> 70.2 µM
same,TGI,OVCAR-8 ovarian,> 100 µM
same,TGI,PC-3 prostate,63.5 µM
same,TGI,RPMI-8226 leukemia,42.4 µM
same,TGI,RXF 393 renal,92.3 µM
same,TGI,SF-268 CNS,42.9 µM
same,TGI,SF-295 CNS,> 53.3 µM
same,TGI,SF-539 CNS,67 µM
same,TGI,SK-MEL-2 melanoma,> 71.7 µM
same,TGI,SK-MEL-28 melanoma,> 100 µM
same,TGI,SK-MEL-5 melanoma,18.4 µM
same,TGI,SK-OV-3 ovarian,> 100 µM
same,TGI,SN12C renal,> 82.7 µM
same,TGI,SNB-19 CNS,> 85.9 µM
same,TGI,SNB-75 CNS,30.6 µM
same,TGI,SR leukemia,48.1 µM
same,TGI,SW-620 colon,> 46.9 µM
same,TGI,T-47D breast,> 93.3 µM
same,TGI,TK-10 renal,> 100 µM
same,TGI,U251 CNS,> 52.2 µM
same,TGI,UACC-257 melanoma,> 100 µM
same,TGI,UACC-62 melanoma,49.9 µM
same,TGI,UO-31 renal,67.3 µM
COC12C=CC(CC1)C(C)(C)C2=O (stereo not given),TGI,786-0 renal,> 100 µM
same,TGI,A498 renal,> 100 µM
same,TGI,A549 NSCLC,> 100 µM
same,TGI,ACHN renal,> 100 µM
same,TGI,BT-549 breast,> 100 µM
same,TGI,CAKI-1 renal,> 100 µM
same,TGI,CCRF-CEM leukemia,> 100 µM
same,TGI,COLO 205 colon,> 100 µM
same,TGI,DU-145 prostate,> 100 µM
same,TGI,EKVX NSCLC,> 100 µM
same,TGI,HCC-2998 colon,> 100 µM
same,TGI,HCT-116 colon,> 100 µM
same,TGI,HCT-15 colon,> 100 µM
same,TGI,HL-60(TB) leukemia,> 100 µM
same,TGI,HOP-62 NSCLC,> 100 µM
same,TGI,HOP-92 NSCLC,> 100 µM
same,TGI,HS 578T breast,> 100 µM
same,TGI,HT29 colon,> 100 µM
same,TGI,IGROV1 ovarian,> 100 µM
same,TGI,K-562 leukemia,> 100 µM
same,TGI,KM12 colon,> 100 µM
same,TGI,M14 melanoma,> 100 µM
same,TGI,MALME-3M melanoma,> 100 µM
same,TGI,MCF7 breast,> 100 µM
same,TGI,MDA-MB-231 breast,> 100 µM
same,TGI,MDA-MB-435,> 100 µM
same,TGI,MDA-N,> 100 µM
same,TGI,MOLT-4 leukemia,> 100 µM
same,TGI,NCI-H226 lung,> 100 µM
same,TGI,NCI-H23 lung,> 100 µM
same,TGI,NCI-H460 lung,> 100 µM
same,TGI,NCI-H522 lung,> 100 µM
same,TGI,NCI/ADR-RES ovarian,> 100 µM
same,TGI,OVCAR-3 ovarian,> 100 µM
same,TGI,OVCAR-4 ovarian,> 100 µM
same,TGI,OVCAR-5 ovarian,> 100 µM
same,TGI,OVCAR-8 ovarian,> 100 µM
same,TGI,PC-3 prostate,> 100 µM
same,TGI,RPMI-8226 leukemia,> 100 µM
same,TGI,RXF 393 renal,> 100 µM
same,TGI,SF-268 CNS,> 100 µM
same,TGI,SF-295 CNS,> 100 µM
same,TGI,SF-539 CNS,> 100 µM
same,TGI,SK-MEL-2 melanoma,> 100 µM
same,TGI,SK-MEL-28 melanoma,> 100 µM
same,TGI,SK-MEL-5 melanoma,> 100 µM
same,TGI,SK-OV-3 ovarian,> 100 µM
same,TGI,SN12C renal,> 100 µM
same,TGI,SNB-19 CNS,> 100 µM
same,TGI,SNB-75 CNS,> 100 µM
same,TGI,SR leukemia,> 100 µM
same,TGI,SW-620 colon,> 100 µM
same,TGI,T-47D breast,> 100 µM
same,TGI,TK-10 renal,> 100 µM
same,TGI,U251 CNS,> 100 µM
same,TGI,UACC-257 melanoma,> 100 µM
same,TGI,UACC-62 melanoma,> 100 µM
same,TGI,UO-31 renal,> 100 µM

# Source: PubChem BioAssay (NCI)
